According to US9487462B2, “Inhibitors of matrix metalloproteinases” (PharmaHungary 2000 Kft., priority 2010, dated 2016):
“Also recorded” adds a separate entry of the source. Read-outs that look alike come from different tables or passages of the source.

Tests used:
MMP2 = MMP2 (Homo sapiens, UniProt P08253); experiment: MMP activity assay (fluorogenic substrate), MMP2 catalytic domain; assay type: biochemical
MMP9 = MMP9 (Homo sapiens, UniProt P14780); experiment: MMP activity assay (fluorogenic substrate), MMP9 catalytic domain; assay type: biochemical; settings: Table 2
MMP13 = MMP13 (Homo sapiens (Human), UniProt P45452); experiment: MMP activity assay (fluorogenic substrate), MMP13 catalytic domain; assay type: biochemical; settings: Table 2; read-out: MMP13 IC50
MMP-2 = MMP-2 (Rattus norvegicus (Rat), UniProt P33436); experiment: In vitro zymography assay (gelatin), MMP-2; assay type: biochemical
Chain of MMP-2 (P33436 110-662): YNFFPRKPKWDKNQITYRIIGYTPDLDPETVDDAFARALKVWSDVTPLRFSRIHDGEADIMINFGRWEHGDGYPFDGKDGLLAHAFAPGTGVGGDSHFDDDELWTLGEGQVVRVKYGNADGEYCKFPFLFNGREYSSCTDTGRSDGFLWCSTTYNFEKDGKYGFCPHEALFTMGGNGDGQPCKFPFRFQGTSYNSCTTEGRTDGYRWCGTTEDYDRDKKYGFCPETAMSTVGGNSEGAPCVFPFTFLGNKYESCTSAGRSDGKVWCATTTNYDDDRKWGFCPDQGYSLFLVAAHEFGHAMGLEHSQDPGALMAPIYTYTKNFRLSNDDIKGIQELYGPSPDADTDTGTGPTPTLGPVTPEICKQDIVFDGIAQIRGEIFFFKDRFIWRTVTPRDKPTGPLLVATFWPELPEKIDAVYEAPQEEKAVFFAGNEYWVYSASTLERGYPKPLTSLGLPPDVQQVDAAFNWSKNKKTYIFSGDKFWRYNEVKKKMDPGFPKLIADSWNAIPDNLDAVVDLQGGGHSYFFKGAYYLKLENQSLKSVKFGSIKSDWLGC
Procedure: (§1) MMP-2 and MMP-9 enzymes were isolated from rat hearts and from rat spleen while human, recombinant MMP-1 and MMP-13 enzymes used were commercial. MMP-2, -9, -13 enzymes were separated by electrophoresis during non-reducing conditions on 8% SDS-polyacrylamide gels copolymerized with 2 mg/ml gelatin from porcine skin (Sigma Aldrich) while MMP-1 was separated under the same conditions on 8% SDS-polyacrylamide gels copolymerized with 2 mg/ml casein (Sigma Aldrich). […] In case of MMP-13 p-aminophenylmercuric acetate (APMA) was used for enzyme activation at 37° C. for 30 min. After electrophoresis, gels were washed in 2.5% Triton-X 100 with agitation and then incubated for 20 hrs at 37° C. in enzyme incubation buffer (50 mM Tris-HCl, pH 7.5, containing 5 mM CaCl2, 200 mM NaCl) with or without MMP inhibitor. Zymographic gels were stained in Coomassie Brilliant Blue R-250 and de-stained. Gelatin and casein zymograms were scanned. MMP activity is detected as a white zone on a blue background and the clear bands in the gel can be quantified by densitometry. The obtained density values were measured and % inhibition values calculated (Kupai et al., 2010). The table below summarizes the prescreen inhibition values determined for different MMP inhibitors on MMP1, -2, -9, -13.

MMP-9 = MMP-9 (Rattus norvegicus (Rat), UniProt P50282); experiment: In vitro zymography assay (gelatin), MMP-9; assay type: biochemical; settings: % ± SD
Chain of MMP-9 (P50282 108-708): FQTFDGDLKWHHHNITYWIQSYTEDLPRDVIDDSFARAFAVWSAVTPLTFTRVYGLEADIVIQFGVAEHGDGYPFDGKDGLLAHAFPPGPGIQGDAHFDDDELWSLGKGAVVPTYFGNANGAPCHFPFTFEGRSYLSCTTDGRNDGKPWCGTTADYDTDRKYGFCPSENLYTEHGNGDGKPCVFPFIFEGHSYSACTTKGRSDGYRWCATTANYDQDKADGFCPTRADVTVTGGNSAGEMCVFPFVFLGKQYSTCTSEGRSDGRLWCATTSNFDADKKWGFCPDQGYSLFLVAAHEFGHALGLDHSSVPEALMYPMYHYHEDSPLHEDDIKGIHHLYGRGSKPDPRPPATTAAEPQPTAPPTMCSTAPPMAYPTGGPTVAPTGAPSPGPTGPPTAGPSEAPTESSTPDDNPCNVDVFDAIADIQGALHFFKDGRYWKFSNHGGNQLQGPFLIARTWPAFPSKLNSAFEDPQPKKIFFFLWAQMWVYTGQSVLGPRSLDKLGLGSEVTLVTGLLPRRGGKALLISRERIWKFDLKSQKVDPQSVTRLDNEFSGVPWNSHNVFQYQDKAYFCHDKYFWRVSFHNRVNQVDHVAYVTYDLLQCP
Procedure: as §1

isolated rat hearts = experiment: Myocardial ischemia/reperfusion injury in isolated rat hearts (Langendorff), infarct size; assay type: ex vivo
Procedure: Male Wistar rats were anesthetized with diethyl ether, heparin (500 U/kg i.v.) was administered and hearts were isolated. The hearts were assigned to three groups: (i) DMSO control and (ii) Compound 1 (1 μM) and (iii) Compound 1 (10 μM) treated. Stock solution of inhibitors was prepared in DMSO. The final DMSO concentration in all assays was 0.1%. Hearts were perfused in Langendorff mode with constant pressure (100 H2O cm) for 20 min at 37° C. then exposed to global ischemia for 30 min followed by 120 min of reperfusion. The DMSO and inhibitors were dissolved in Krebs-Henseleit buffer and administered only before onset of ischemia for 20 min (pretreatment) and during the first 30 min of reperfusion (FIG. 6). At the end of reperfusion, infarct size (IS) was defined by triphenyltetrazolium chloride staining (Csonka et al., 2010).
In separate experiments hearts were perfused to test cardioprotective effect of ALBH-know compound at 5 μM final concentration. The same protocol was used as mentioned above.

IC50 (MMP2; Table 2, read-out: MMP2 IC50): 5.7 µM
IC50 (MMP2; read-out: IC50 on MMP2): 5.7 µM
IC50 (MMP9): 37 µM
IC50 (MMP13): 2.5 µM
inhibition at 1 µM (MMP-2; 1 μM, % ± SD, read-out: % inhibition MMP-2 (72 kDa)): 100%
inhibition at 100 µM (MMP-2; 100 μM, % ± SD, read-out: % inhibition MMP-2 (72 kDa)): 100%
selectivity in the inhibition of different MMP isoenzymes (MMP-2; summary in words, MMP1, MMP2, MMP9, MMP13): highly selective for MMP2
IC50 (MMP-2; zymography, Table 8, read-out: IC50 on MMP-2): 11.2 µM
% inhibition MMP-9 (92 kDa) (MMP-9; 1 μM): No inhibition
% inhibition MMP-9 (92 kDa) (MMP-9; 100 μM): No inhibition
Structure (SMILES): O=C(O)c1csc(CN(Cc2ccc(F)cc2)Cc2ccc(OCc3cccnc3)cc2)n1 [Compound 1, 2-({[(4-Fluorophenyl)methyl]({[4-(pyridin-3-ylmethoxy)phenyl]methyl})amino}methyl)-1,3-thiazole-4-carboxylic acid]
myocardial IS (infarct size) (isolated rat hearts; 1 μM and 10 μM, administered before ischemia and during reperfusion, result in words): reduced myocardial IS; also recorded: decreased infarct size significantly
Infarct size as compared with DMSO control (isolated rat hearts; 10 μM, isolated rat hearts, 30 min global ischemia, 120 min reperfusion, p<0.05): significantly decreased infarct size
